Tests used:
Assay in all cases: relative viability (nuclei count vs DMSO), 5 days (fraction); higher = more cells survive
AZD5582 + Dasatinib = compound: C[C@@H](C(=O)N[C@@H](C1CCCCC1)C(=O)N2CCC[C@H]2C(=O)N[C@@H]3[C@@H](CC4=CC=CC=C34)OCC#CC#CCO[C@@H]5CC6=CC=CC=C6[C@@H]5NC(=O)[C@@H]7CCCN7C(=O)[C@H](C8CCCCC8)NC(=O)[C@H](C)NC)NC [AZD5582] + Cc1nc(Nc2ncc(C(=O)Nc3c(C)cccc3Cl)s2)cc(N2CCN(CCO)CC2)n1 [Dasatinib] (partner 0.075 µM)
Method in brief: (§1)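 For relative viability, nuclei counts in treated wells were divided by those in vehicle wells. Lung cancer cell lines had been pin-tool dosed in 1536-well plates the day after seeding and cultured for 5 days, then fixed and stained in one step (final 0.05% Triton X-100, 1% formaldehyde, 1 ug/ml Hoechst) and imaged at 4×. Doses were one drug alone or a fixed anchor-drug dose plus five library-drug doses (not always all listed) in √10 steps, and values are duplicate-plate medians.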

[1] = compound: Cn1nnc2c(C(N)=O)ncn2c1=O [Temozolomide] + N=C(N)NC(=N)NCCc1ccccc1 [Phenformin] (partner 250 µM)
Method in brief: as §1

Temozolomide + Foretinib = compound: Cn1nnc2c(C(N)=O)ncn2c1=O [Temozolomide] + COc1cc2c(Oc3ccc(NC(=O)C4(C(=O)Nc5ccc(F)cc5)CC4)cc3F)ccnc2cc1OCCCN1CCOCC1 [Foretinib] (partner 0.25 µM)
Method in brief: as §1

AZD5582 + Alpelisib = compound: C[C@@H](C(=O)N[C@@H](C1CCCCC1)C(=O)N2CCC[C@H]2C(=O)N[C@@H]3[C@@H](CC4=CC=CC=C34)OCC#CC#CCO[C@@H]5CC6=CC=CC=C6[C@@H]5NC(=O)[C@@H]7CCCN7C(=O)[C@H](C8CCCCC8)NC(=O)[C@H](C)NC)NC [AZD5582] + Cc1nc(NC(=O)N2CCC[C@H]2C(N)=O)sc1-c1ccnc(C(C)(C)C(F)(F)F)c1 [Alpelisib] (partner 2 µM)
Method in brief: as §1

RERF-LC-KJ
relative viability (AZD5582 + Dasatinib; first compound 0.01581 µM): 0.723
relative viability (AZD5582 + Dasatinib; first compound 0.05 µM): 0.696
relative viability ([1]; first compound 0.2 µM): 0.444
relative viability ([1]; first compound 0.6325 µM): 0.466
relative viability ([1]; first compound 2 µM): 0.442
relative viability ([1]; first compound 6.325 µM): 0.41
relative viability ([1]; first compound 20 µM): 0.427
relative viability (Temozolomide + Foretinib; first compound 0.2 µM): 0.888
relative viability (Temozolomide + Foretinib; first compound 0.6325 µM): 0.928
relative viability (Temozolomide + Foretinib; first compound 2 µM): 0.875
relative viability (Temozolomide + Foretinib; first compound 6.325 µM): 0.936
relative viability (Temozolomide + Foretinib; first compound 20 µM): 0.901
relative viability (AZD5582 + Alpelisib; first compound 0.005 µM): 0.532
relative viability (AZD5582 + Alpelisib; first compound 0.01581 µM): 0.781
relative viability (AZD5582 + Alpelisib; first compound 0.05 µM): 0.639

SK-LU-1
relative viability (AZD5582 + Dasatinib; first compound 0.001581 µM): 0.147
relative viability (AZD5582 + Dasatinib; first compound 0.005 µM): 0.0852
relative viability (AZD5582 + Dasatinib; first compound 0.01581 µM): 0.174
relative viability (AZD5582 + Dasatinib; first compound 0.05 µM): 0.0634
relative viability ([1]; first compound 0.2 µM): 0.635
relative viability ([1]; first compound 0.6325 µM): 0.57
relative viability ([1]; first compound 2 µM): 0.461
relative viability ([1]; first compound 6.325 µM): 0.296
relative viability ([1]; first compound 20 µM): 0.258
relative viability (Temozolomide + Foretinib; first compound 0.2 µM): 0.954
relative viability (Temozolomide + Foretinib; first compound 0.6325 µM): 0.849
relative viability (Temozolomide + Foretinib; first compound 2 µM): 0.585
relative viability (Temozolomide + Foretinib; first compound 6.325 µM): 0.444
relative viability (Temozolomide + Foretinib; first compound 20 µM): 0.342
relative viability (AZD5582 + Alpelisib; first compound 0.001581 µM): 0.744
relative viability (AZD5582 + Alpelisib; first compound 0.005 µM): 0.554
relative viability (AZD5582 + Alpelisib; first compound 0.01581 µM): 0.95
relative viability (AZD5582 + Alpelisib; first compound 0.05 µM): 0.243

SK-MES-1
relative viability (AZD5582 + Dasatinib; first compound 0.001581 µM): 0.246
relative viability (AZD5582 + Dasatinib; first compound 0.005 µM): 0.445
relative viability (AZD5582 + Dasatinib; first compound 0.01581 µM): 0.367
relative viability (AZD5582 + Dasatinib; first compound 0.05 µM): 0.279
relative viability ([1]; first compound 0.2 µM): 0.752
relative viability ([1]; first compound 0.6325 µM): 0.68
relative viability ([1]; first compound 2 µM): 0.7
relative viability ([1]; first compound 6.325 µM): 0.729
relative viability ([1]; first compound 20 µM): 0.682
relative viability (Temozolomide + Foretinib; first compound 0.2 µM): 0.972
relative viability (Temozolomide + Foretinib; first compound 0.6325 µM): 1.05
relative viability (Temozolomide + Foretinib; first compound 2 µM): 1.09
relative viability (Temozolomide + Foretinib; first compound 6.325 µM): 0.892
relative viability (Temozolomide + Foretinib; first compound 20 µM): 0.521
relative viability (AZD5582 + Alpelisib; first compound 0.001581 µM): 0.773
relative viability (AZD5582 + Alpelisib; first compound 0.005 µM): 0.995
relative viability (AZD5582 + Alpelisib; first compound 0.01581 µM): 0.808
relative viability (AZD5582 + Alpelisib; first compound 0.05 µM): 0.947

SW 1573
relative viability (AZD5582 + Dasatinib; first compound 0.001581 µM): 0.56
relative viability (AZD5582 + Dasatinib; first compound 0.005 µM): 0.732
relative viability (AZD5582 + Dasatinib; first compound 0.01581 µM): 0.573
relative viability (AZD5582 + Dasatinib; first compound 0.05 µM): 0.566
relative viability ([1]; first compound 0.2 µM): 0.348
relative viability ([1]; first compound 0.6325 µM): 0.384
relative viability ([1]; first compound 2 µM): 0.457
relative viability ([1]; first compound 6.325 µM): 0.367
relative viability ([1]; first compound 20 µM): 0.348
relative viability (Temozolomide + Foretinib; first compound 0.2 µM): 0.861
relative viability (Temozolomide + Foretinib; first compound 0.6325 µM): 0.915
relative viability (Temozolomide + Foretinib; first compound 2 µM): 0.79
relative viability (Temozolomide + Foretinib; first compound 6.325 µM): 0.725
relative viability (Temozolomide + Foretinib; first compound 20 µM): 0.938
relative viability (AZD5582 + Alpelisib; first compound 0.001581 µM): 0.856
relative viability (AZD5582 + Alpelisib; first compound 0.005 µM): 0.705
relative viability (AZD5582 + Alpelisib; first compound 0.01581 µM): 0.673
relative viability (AZD5582 + Alpelisib; first compound 0.05 µM): 1.01

UMC-11
relative viability (AZD5582 + Dasatinib; first compound 0.001581 µM): 0.424
relative viability (AZD5582 + Dasatinib; first compound 0.005 µM): 0.455
relative viability (AZD5582 + Dasatinib; first compound 0.01581 µM): 0.447
relative viability (AZD5582 + Dasatinib; first compound 0.05 µM): 0.414
relative viability ([1]; first compound 0.2 µM): 0.378
relative viability ([1]; first compound 0.6325 µM): 0.357
relative viability ([1]; first compound 2 µM): 0.378
relative viability ([1]; first compound 6.325 µM): 0.326
relative viability ([1]; first compound 20 µM): 0.301
relative viability (Temozolomide + Foretinib; first compound 0.2 µM): 1.11
relative viability (Temozolomide + Foretinib; first compound 0.6325 µM): 1.06
relative viability (Temozolomide + Foretinib; first compound 2 µM): 1.16
relative viability (Temozolomide + Foretinib; first compound 6.325 µM): 0.872
relative viability (Temozolomide + Foretinib; first compound 20 µM): 0.57
relative viability (AZD5582 + Alpelisib; first compound 0.001581 µM): 1.05
relative viability (AZD5582 + Alpelisib; first compound 0.005 µM): 1.11
relative viability (AZD5582 + Alpelisib; first compound 0.01581 µM): 0.968
relative viability (AZD5582 + Alpelisib; first compound 0.05 µM): 1.08

Reference: the supplement of paper PMC10307832
